Data as given in patent publication US10829458B2 (Araxes Pharma LLC, priority 2015, dated 2020).

Biological target: T1, KRAS G12C 1-169, his-tagged protein, GDP-loaded (Homo sapiens, UniProt P01116, G12C)
T1 construct: KRAS G12C 1-169, his-tagged protein, GDP-loaded
Assay: Biochemical assay: covalent modification of KRAS G12C measured by mass spectrometry (RapidFire/TOF or Q-Exactive)
Details: covalent binding to KRAS G12C
How it was run: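 Covalent adduct formation read by intact-mass spectrometry (TOF or Q Exactive Plus, charge envelopes deconvoluted into modified and unmodified species) after formic acid quench. Reactions contained 2 μM GDP-bound KRAS G12C 1-169 (his-tag) in Hepes/NaCl/MgCl2 buffer plus 10, 30 or 100 μM final compound, held 30 min, 2 h or 24 h at room temperature.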

## C=CC(=O)N1CCN(c2nc(NC3CCCN(CC(F)(F)F)C3)nc3c(F)c(-c4c(O)cccc4F)c(Cl)cc23)CC1 (stereo not drawn) [Example I-133, 1-(4-(6-chloro-8-fluoro-7-(2-fluoro-6-hydroxyphenyl)-2-(1-(2,2,2-trifluoroethyl)piperidin-3-ylamino)quinazolin-4-yl)piperazin-1-yl) prop-2-en-1-one]
Compounds of structure (I)
  Binding %: ++ (++ indicates binding activity from 50 to 90%)

## C=CC(=O)N1CCN(c2nc(NC3CN(C(C)C)C3)nc3c(F)c(-c4c(O)cccc4F)c(Cl)cc23)CC1 [Example I-174, 1-(4-(6-chloro-8-fluoro-7-(2-fluoro-6-hydroxyphenyl)-2-((1-isopropyl-azetidin-3-yl)amino)quinazolin-4-yl)piperazin-1-yl) prop-2-en-1-one]
Compounds of structure (I)
  Binding %: + (+ indicates binding activity up to 50%)

## C=CC(=O)N1CCN(c2nc(NCCN(CC)CC)nc3c(F)c(-c4c(C)ccc5[nH]ncc45)c(Cl)cc23)CC1 [Example I-161, 1-(4-(6-chloro-2-(2-(diethyl-amino)ethylamino)-8-fluoro-7-(5-methyl-1H-indazol-4-yl)quinazolin-4-yl)piperazin-1-yl) prop-2-en-1-one]
Compounds of structure (I)
  Binding %: +++ (+++ indicates binding activity greater than 90%)

## C=CC(=O)N1CCN(c2nc(OCc3ncccn3)nc3c(F)c(-c4c(O)cccc4F)c(Cl)cc23)CC1 [Example I-105, 1-(4-(6-chloro-8-fluoro-7-(2-fluoro-6-hydroxyphenyl)-2-(pyrimidin-2-ylmethoxy)quinazolin-4-yl)piperazin-1-yl) prop-2-en-1-one]
Compounds of structure (I)
  Binding %: +++ (+++ indicates binding activity greater than 90%)

## C=CC(=O)N1CCN(c2nc(CNc3ccccn3)nc3c(F)c(-c4c(O)cccc4F)c(Cl)cc23)CC1 [Example I-199, 1-(4-(6-chloro-8-fluoro-7-(2-fluoro-6-hydroxyphenyl)-2-((pyridin-2-ylamino)methyl)quinazolin-4-yl)piperazin-1-yl) prop-2-en-1-one]
Compounds of structure (I)
  Binding %: +++ (+++ indicates binding activity greater than 90%)

## C=CC(=O)N1CCN(c2nc(OC3CCN(C)CC3)nc3c(F)c(-c4cc(O)cc5ccccc45)c(Cl)cc23)CC1 [Example I-93, 1-(4-(6-chloro-8-fluoro-7-(3-hydroxy-naphthalen-1-yl)-2-(1-methyl-piperidin-4-yloxy)quinazolin-4-yl)piperazin-1-yl)prop-2-en-1-one]
Compounds of structure (I)
  Binding %: +++ (+++ indicates binding activity greater than 90%)

## C=CC(=O)N1CCN(c2nc(OCCN3CCOCC3)nc3c(F)c(-c4c(O)cccc4F)c(Cl)cc23)CC1 [Example I-10, 1-(4-(6-chloro-8-fluoro-7-(2-fluoro-6-hydroxyphenyl)-2-(2-morpholino-ethoxy)quinazolin-4-yl)piperazin-1-yl)prop-2-en-1-one]
Compounds of structure (I)
  Binding %: +++ (+++ indicates binding activity greater than 90%)

## C=CC(=O)N1CCN(c2nc(N3CCOCC3)nc3c(F)c(-c4c(O)cccc4F)c(Cl)cc23)CC1 [Example I-47, 1-(4-(6-chloro-8-fluoro-7-(2-fluoro-6-hydroxyphenyl)-2-morpholino-quinazolin-4-yl)piperazin-1-yl)prop-2-en-1-one]
Compounds of structure (I)
  Binding %: +++ (+++ indicates binding activity greater than 90%)

## C=CC(=O)N1CCN(c2nc(NC3CCN(C(C)=O)CC3)nc3c(F)c(-c4c(O)cccc4F)c(Cl)cc23)CC1 [Example I-70, 1-(4-(2-(1-acetyl-piperidin-4-ylamino)-6-chloro-8-fluoro-7-(2-fluoro-6-hydroxyphenyl)quinazolin-4-yl)piperazin-1-yl) prop-2-en-1-one]
Compounds of structure (I)
  Binding %: +++ (+++ indicates binding activity greater than 90%)

## C=CC(=O)N1CCN(c2nc(CCNc3ccccn3)nc3c(F)c(-c4c(O)cccc4F)c(Cl)cc23)CC1 [Example I-201, 1-(4-(6-chloro-8-fluoro-7-(2-fluoro-6-hydroxyphenyl)-2-(2-(pyridin-2-ylamino)ethyl)quinazolin-4-yl)piperazin-1-yl) prop-2-en-1-one]
Compounds of structure (I)
  Binding %: ++ (++ indicates binding activity from 50 to 90%)

## C=CC(=O)N1CCN(c2ncnc3c(F)c(-c4c(F)cccc4OC)c(Cl)cc23)[C@H](C)C1 [III-13, 1-((3R)-4-(6-chloro-8-fluoro-7-(2-fluoro-6-methoxy-phenyl)quinazolin-4-yl)-3-methyl-piperazin-1-yl)prop-2-en-1-one]
Compounds of structure (III)
  Binding %: + (+ indicates binding activity up to 50%)

## C=CC(=O)N1CCN(c2nc(OCCN3CCOCC3)nc3c(F)c(-c4cc(O)cc5ccccc45)c(Cl)cc23)CC1 (atropisomer, axis not shown) [Example I-52, (R)-1-(4-(6-chloro-8-fluoro-7-(3-hydroxy-naphthalen-1-yl)-2-(2-morpholino-ethoxy)quinazolin-4-yl)piperazin-1-yl)prop-2-en-1-one]
Compounds of structure (I)
  Binding %: + (+ indicates binding activity up to 50%)

## C=CC(=O)N1CCN(c2nc(OCCN3CC(F)(F)C3)nc3c(F)c(-c4cc(O)cc5ccccc45)c(Cl)cc23)CC1 [Example I-107, 1-(4-(6-chloro-2-(2-(3,3-difluoro-azetidin-1-yl)ethoxy)-8-fluoro-7-(3-hydroxy-naphthalen-1-yl)quinazolin-4-yl)piperazin-1-yl) prop-2-en-1-one]
Compounds of structure (I)
  Binding %: +++ (+++ indicates binding activity greater than 90%)

## C=CC(=O)N1C[C@@H](C)N(c2ncnc3c(F)c(-c4c(C)ccc5cn[nH]c45)c(Cl)cc23)[C@@H](C)C1 [III-42, 1-((3S,5R)-4-(6-chloro-8-fluoro-7-(6-methyl-1H-indazol-7-yl)quinazolin-4-yl)-3,5-dimethyl-piperazin-1-yl)prop-2-en-1-one]
Compounds of structure (III)
  Binding %: ++ (++ indicates activity from 50% to 90%)

## C=CC(=O)N1CCC2(C1)CN(c1ncnc3c(F)c(-c4c(O)cccc4F)c(Cl)cc13)C2 [II-8, 1-(2-(6-chloro-8-fluoro-7-(2-fluoro-6-hydroxyphenyl)quinazolin-4-yl)-2,6-diazaspiro[3.4]octan-6-yl)prop-2-en-1-one]
Compounds of structure (II)
  Binding %: + (+ indicates binding activity up to 50%)

## C=CC(=O)N1[C@H](C)CN(c2ncnc3c(F)c(-c4c(C)ccc5cn[nH]c45)c(Cl)cc23)C[C@@H]1C [III-35, 1-((2S,6R)-4-(6-chloro-8-fluoro-7-(6-methyl-1H-indazol-7-yl)quinazolin-4-yl)-2,6-dimethyl-piperazin-1-yl)prop-2-en-1-one]
Compounds of structure (III)
  Binding %: +++ (+++ indicates binding activity greater than 90%)

## C=CC(=O)N1CCN(c2ncnc3c(F)c(-c4c(O)cccc4F)c(Cl)cc23)[C@@H](CO)C1 [III-39, 1-((3R)-4-(6-chloro-8-fluoro-7-(2-fluoro-6-hydroxy-phenyl)quinazolin-4-yl)-3-(hydroxy-methyl)piperazin-1-yl)prop-2-en-1-one]
Compounds of structure (III)
  Binding %: + (+ indicates binding activity up to 50%)

## C=CC(=O)N1CCN(c2nc(CCNc3ncccn3)nc3c(F)c(-c4c(O)cccc4F)c(Cl)cc23)CC1 [Example I-135, 1-(4-(6-chloro-8-fluoro-7-(2-fluoro-6-hydroxyphenyl)-2-(2-(pyrimidin-2-ylamino)ethyl)quinazolin-4-yl)piperazin-1-yl) prop-2-en-1-one]
Compounds of structure (I)
  Binding %: +++ (+++ indicates binding activity greater than 90%)

## C=CC(=O)N1CCN(c2nc(C(N)=O)nc3c(F)c(-c4c(O)cccc4F)c(Cl)cc23)CC1 [Example I-85, 4-(4-acryloyl-piperazin-1-yl)-6-chloro-8-fluoro-7-(2-fluoro-6-hydroxyphenyl) quinazoline-2-carboxamide]
Compounds of structure (I)
  Binding %: +++ (+++ indicates binding activity greater than 90%)

## C=CC(=O)N1CCN(c2nc(OC3CCN(C)C3)nc3c(F)c(-c4c(O)cccc4F)c(Cl)cc23)CC1 (stereo not drawn) [Example I-22, 1-(4-(6-chloro-8-fluoro-7-(2-fluoro-6-hydroxyphenyl)-2-(1-methyl-pyrrolidin-3-yloxy)quinazolin-4-yl)piperazin-1-yl)prop-2-en-1-one]
Compounds of structure (I)
  Binding %: ++ (++ indicates binding activity from 50 to 90%)

## C=CC(=O)N1CCN(c2nc(NCCc3ncccn3)nc3c(F)c(-c4c(C)ccc5[nH]ncc45)c(Cl)cc23)CC1 [Example I-169, 1-(4-(6-chloro-8-fluoro-7-(5-methyl-1H-indazol-4-yl)-2-((2-(pyrimidin-2-yl)ethyl)amino)quinazolin-4-yl)piperazin-1-yl) prop-2-en-1-one]
Compounds of structure (I)
  Binding %: ++ (++ indicates binding activity from 50 to 90%)

## C=CC(=O)N1CCN(c2nc(OC)nc3c(OC)c(-c4c(O)cccc4F)c(Cl)cc23)CC1 [Example I-154, 1-(4-(6-chloro-7-(2-fluoro-6-hydroxyphenyl)-2,8-dimethoxy-quinazolin-4-yl)piperazin-1-yl) prop-2-en-1-one]
Compounds of structure (I)
  Binding %: +++ (+++ indicates binding activity greater than 90%)

## C=CC(=O)N1CCN(c2nc(CCN3CC(C)(N(C)C)C3)nc3c(F)c(-c4c(O)cccc4F)c(Cl)cc23)CC1 [Example I-198, 1-(4-(6-chloro-2-(2-(3-(dimethyl-amino)-3-methyl-azetidin-1-yl)ethyl)-8-fluoro-7-(2-fluoro-6-hydroxyphenyl)quinazolin-4-yl)piperazin-1-yl) prop-2-en-1-one]
Compounds of structure (I)
  Binding %: ++ (++ indicates binding activity from 50 to 90%)

## C=CC(=O)N1CCN(c2nc(OCC3CN(c4ncccc4F)C3)nc3c(F)c(-c4c(C)ccc5[nH]ncc45)c(Cl)cc23)CC1 [Example I-158, 1-(4-(6-chloro-8-fluoro-2-((1-(3-fluoropyridin-2-yl)azetidin-3-yl)methoxy)-7-(5-methyl-1H-indazol-4-yl)quinazolin-4-yl)piperazin-1-yl) prop-2-en-1-one]
Compounds of structure (I)
  Binding %: +++ (+++ indicates binding activity greater than 90%)
